Experimental data: ChEMBL document CHEMBL5303762, “Data for DCP probe BI-8668” (2023)
Blank lines part the entries; values can stand above or below the compound they belong to. Active and inactive are the calls of the source. No cut-off for these calls is given here.

How the values were obtained:
[1] = target: Delta-type opioid receptor (Homo sapiens) (UniProt P41143); assay: DELTA2/H Eurofins SafetyScreen44 (BI); conditions: Compound concentration 10.0 uM
[2] = target: GABA-A receptor; anion channel (Rattus norvegicus) (UniProt O09028+P15431+P18506+P18508+P19969+P20236+P23574+P23576+P28471+P28473+P30191+P62813+P63079+P63138+Q91ZM7+Q9ES14); assay: BZD/CENTR/R Eurofins SafetyScreen44 (BI); assay type: protein-complex assay; conditions: Compound concentration 10.0 uM
[3] = target: Histamine H1 receptor (Homo sapiens) (UniProt P35367); assay: H1/PYRIL/HS Eurofins SafetyScreen44 (BI); conditions: Compound concentration 10.0 uM
[4] = target: T1, Alpha-1A adrenergic receptor (Homo sapiens) (UniProt P35348); assay: ALPHA1AH_ANTAG Eurofins SafetyScreen44 (BI); conditions: filed as antagonist, Compound concentration 10.0 uM
T1 sequence (whole entry): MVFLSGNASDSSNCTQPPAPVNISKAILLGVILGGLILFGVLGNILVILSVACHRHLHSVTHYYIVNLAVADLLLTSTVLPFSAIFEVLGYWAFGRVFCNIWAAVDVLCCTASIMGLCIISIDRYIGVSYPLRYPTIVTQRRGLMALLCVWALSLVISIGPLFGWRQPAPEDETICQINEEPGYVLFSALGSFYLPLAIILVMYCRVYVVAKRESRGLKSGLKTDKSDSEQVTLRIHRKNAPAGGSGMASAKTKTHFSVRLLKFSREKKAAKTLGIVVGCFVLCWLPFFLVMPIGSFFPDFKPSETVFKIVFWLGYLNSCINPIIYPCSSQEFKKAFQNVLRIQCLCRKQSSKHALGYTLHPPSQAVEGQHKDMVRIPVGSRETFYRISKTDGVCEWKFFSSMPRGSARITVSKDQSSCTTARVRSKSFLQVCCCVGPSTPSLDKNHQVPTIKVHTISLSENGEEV

[5] = target: Histamine H2 receptor (Homo sapiens) (UniProt P25021); assay: H2/APT/HS Eurofins SafetyScreen44 (BI); conditions: filed as antagonist, Compound concentration 10.0 uM
Chain of Histamine H2 receptor (Homo sapiens) (P25021 whole entry): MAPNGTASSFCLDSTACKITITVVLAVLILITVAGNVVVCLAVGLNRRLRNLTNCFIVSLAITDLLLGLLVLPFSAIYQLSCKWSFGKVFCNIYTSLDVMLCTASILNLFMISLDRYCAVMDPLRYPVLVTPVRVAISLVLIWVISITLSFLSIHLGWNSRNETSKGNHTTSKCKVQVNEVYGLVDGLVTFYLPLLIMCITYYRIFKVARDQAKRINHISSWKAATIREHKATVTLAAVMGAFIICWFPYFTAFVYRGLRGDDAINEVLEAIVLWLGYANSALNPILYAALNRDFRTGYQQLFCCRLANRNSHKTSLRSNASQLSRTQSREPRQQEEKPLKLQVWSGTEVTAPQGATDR

[6] = target: 5-hydroxytryptamine receptor 2B (Homo sapiens) (UniProt P41595); assay: 5HT2B/H AG Eurofins SafetyScreen44 (BI); conditions: filed as agonist, Compound concentration 10.0 uM
[7] = target: voltage-gated potassium channel (IKs; KCNQ1/KCNE1 as curated) (Rattus norvegicus, UniProt P15383+Q9Z0N7); assay: K+/VOLT/RA Eurofins SafetyScreen44 (BI); assay type: protein-complex assay; conditions: compound concentration 10 uM, read-out: % Ctrl
Chain of voltage-gated potassium channel (IKs; KCNQ1/KCNE1 as curated) (Q9Z0N7 whole entry): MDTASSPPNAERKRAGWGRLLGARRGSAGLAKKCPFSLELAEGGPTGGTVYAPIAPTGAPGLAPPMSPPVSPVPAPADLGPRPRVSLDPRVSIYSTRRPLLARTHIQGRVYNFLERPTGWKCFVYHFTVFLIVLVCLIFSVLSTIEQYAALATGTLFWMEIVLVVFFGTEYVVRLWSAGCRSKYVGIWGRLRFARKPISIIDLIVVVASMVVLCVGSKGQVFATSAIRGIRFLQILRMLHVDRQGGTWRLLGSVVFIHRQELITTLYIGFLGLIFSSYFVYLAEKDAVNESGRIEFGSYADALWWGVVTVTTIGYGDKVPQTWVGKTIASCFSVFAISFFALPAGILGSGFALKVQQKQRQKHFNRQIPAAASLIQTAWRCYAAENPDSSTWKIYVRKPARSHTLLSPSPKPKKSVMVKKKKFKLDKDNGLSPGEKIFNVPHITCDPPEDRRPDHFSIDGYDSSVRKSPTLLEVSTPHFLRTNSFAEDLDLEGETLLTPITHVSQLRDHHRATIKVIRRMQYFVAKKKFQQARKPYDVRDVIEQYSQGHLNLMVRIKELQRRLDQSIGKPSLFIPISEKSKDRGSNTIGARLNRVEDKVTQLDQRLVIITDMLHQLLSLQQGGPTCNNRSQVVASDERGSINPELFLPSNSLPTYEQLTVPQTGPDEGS
Chain of voltage-gated potassium channel (IKs; KCNQ1/KCNE1 as curated) (P15383 whole entry): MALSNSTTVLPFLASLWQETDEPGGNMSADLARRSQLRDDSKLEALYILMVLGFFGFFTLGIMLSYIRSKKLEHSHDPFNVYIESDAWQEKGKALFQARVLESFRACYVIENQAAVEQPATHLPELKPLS

[8] = target: Beta-2 adrenergic receptor (Homo sapiens) (UniProt P07550); assay: BETA2/HUM Eurofins SafetyScreen44 (BI); conditions: filed as antagonist, Compound concentration 10.0 uM
Chain of Beta-2 adrenergic receptor (Homo sapiens) (P07550 whole entry, looked up): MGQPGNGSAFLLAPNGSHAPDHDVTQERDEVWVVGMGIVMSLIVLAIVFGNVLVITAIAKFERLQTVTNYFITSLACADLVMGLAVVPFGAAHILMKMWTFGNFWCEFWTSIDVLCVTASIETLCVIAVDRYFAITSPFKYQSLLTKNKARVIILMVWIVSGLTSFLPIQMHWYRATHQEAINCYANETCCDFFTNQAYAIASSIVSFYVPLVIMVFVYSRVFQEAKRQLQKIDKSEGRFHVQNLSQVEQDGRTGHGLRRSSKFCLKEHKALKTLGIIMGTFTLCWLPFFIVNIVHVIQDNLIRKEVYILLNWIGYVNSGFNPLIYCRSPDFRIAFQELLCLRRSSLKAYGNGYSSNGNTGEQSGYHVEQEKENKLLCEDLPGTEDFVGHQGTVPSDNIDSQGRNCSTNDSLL

[9] = target: Cholecystokinin receptor type A (Homo sapiens) (UniProt P32238); assay: CCKA/H Eurofins SafetyScreen44 (BI); conditions: Compound concentration 10.0 uM
Chain of Cholecystokinin receptor type A (Homo sapiens) (P32238 whole entry): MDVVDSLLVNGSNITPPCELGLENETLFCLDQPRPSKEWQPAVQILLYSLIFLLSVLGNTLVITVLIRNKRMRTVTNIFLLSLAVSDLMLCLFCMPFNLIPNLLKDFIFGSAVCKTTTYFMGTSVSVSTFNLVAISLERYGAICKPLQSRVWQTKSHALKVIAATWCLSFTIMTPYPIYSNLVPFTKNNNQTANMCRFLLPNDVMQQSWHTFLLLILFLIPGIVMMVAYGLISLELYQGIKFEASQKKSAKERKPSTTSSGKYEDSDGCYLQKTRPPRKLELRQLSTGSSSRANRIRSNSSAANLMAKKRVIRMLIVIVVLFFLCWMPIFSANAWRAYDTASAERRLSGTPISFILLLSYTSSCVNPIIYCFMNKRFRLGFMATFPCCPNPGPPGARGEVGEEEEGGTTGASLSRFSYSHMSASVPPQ

[10] = target: 5-hydroxytryptamine receptor 2A (Homo sapiens) (UniProt P28223); assay: 5HT2AH_AGON Eurofins SafetyScreen44 (BI); conditions: filed as agonist, Compound concentration 10.0 uM
Chain of 5-hydroxytryptamine receptor 2A (Homo sapiens) (P28223 whole entry): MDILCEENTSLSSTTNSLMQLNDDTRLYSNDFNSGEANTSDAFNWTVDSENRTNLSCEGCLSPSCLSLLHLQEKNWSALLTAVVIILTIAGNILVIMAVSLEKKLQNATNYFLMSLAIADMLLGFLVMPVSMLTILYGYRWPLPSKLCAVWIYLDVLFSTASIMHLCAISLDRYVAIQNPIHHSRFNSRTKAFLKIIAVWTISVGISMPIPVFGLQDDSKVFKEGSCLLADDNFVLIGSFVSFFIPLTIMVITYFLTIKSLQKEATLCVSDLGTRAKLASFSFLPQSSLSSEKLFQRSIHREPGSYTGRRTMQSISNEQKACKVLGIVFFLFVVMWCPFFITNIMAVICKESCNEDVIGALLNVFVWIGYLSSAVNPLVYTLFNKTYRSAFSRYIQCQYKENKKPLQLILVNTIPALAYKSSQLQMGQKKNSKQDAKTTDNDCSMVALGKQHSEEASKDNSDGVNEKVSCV

[11] = target: L-type calcium channel alpha-1C (dihydropyridine site) (Rattus norvegicus, UniProt P22002); assay: CA+/DHPSI/R Eurofins SafetyScreen44 (BI); conditions: compound concentration 10 uM, read-out: % Ctrl
[12] = target: Muscarinic acetylcholine receptor M3 (Homo sapiens) (UniProt P20309); assay: M3/H Eurofins SafetyScreen44 (BI); conditions: Compound concentration 10.0 uM
[13] = target: Neuronal acetylcholine receptor; alpha4/beta2 (Homo sapiens) (UniProt P17787+P43681); assay: N_NEURO_A4B2 Eurofins SafetyScreen44 (BI); assay type: protein-complex assay; conditions: filed as agonist, Compound concentration 10.0 uM
[14] = target: Glucocorticoid receptor (Homo sapiens) (UniProt P04150); assay: GCORTICOID/H Eurofins SafetyScreen44 (BI); conditions: Compound concentration 10.0 uM
Chain of Glucocorticoid receptor (Homo sapiens) (P04150 whole entry): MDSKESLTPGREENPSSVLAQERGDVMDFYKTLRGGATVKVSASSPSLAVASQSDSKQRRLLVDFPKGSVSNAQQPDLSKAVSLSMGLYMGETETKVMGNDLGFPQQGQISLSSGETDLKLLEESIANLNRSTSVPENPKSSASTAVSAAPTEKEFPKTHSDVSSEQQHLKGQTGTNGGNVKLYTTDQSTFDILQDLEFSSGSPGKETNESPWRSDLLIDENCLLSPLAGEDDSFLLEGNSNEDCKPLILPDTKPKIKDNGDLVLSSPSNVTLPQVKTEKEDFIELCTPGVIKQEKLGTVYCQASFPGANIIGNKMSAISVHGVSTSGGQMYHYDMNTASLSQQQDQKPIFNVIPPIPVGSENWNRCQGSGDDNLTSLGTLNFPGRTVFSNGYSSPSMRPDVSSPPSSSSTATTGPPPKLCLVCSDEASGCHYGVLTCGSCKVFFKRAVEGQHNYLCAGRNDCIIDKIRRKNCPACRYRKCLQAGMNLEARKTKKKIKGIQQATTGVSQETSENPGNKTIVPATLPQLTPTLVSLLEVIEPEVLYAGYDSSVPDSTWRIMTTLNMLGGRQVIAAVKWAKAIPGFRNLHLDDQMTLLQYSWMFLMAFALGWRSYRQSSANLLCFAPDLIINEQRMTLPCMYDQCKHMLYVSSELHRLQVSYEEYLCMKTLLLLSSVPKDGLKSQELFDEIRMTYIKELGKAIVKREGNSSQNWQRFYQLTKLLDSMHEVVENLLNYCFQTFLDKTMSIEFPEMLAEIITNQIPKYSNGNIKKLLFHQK

[15] = target: D(2) dopamine receptor (Homo sapiens) (UniProt P14416); assay: D2SH_AGON Eurofins SafetyScreen44 (BI); conditions: filed as agonist, Compound concentration 10.0 uM
Chain of D(2) dopamine receptor (Homo sapiens) (P14416 whole entry): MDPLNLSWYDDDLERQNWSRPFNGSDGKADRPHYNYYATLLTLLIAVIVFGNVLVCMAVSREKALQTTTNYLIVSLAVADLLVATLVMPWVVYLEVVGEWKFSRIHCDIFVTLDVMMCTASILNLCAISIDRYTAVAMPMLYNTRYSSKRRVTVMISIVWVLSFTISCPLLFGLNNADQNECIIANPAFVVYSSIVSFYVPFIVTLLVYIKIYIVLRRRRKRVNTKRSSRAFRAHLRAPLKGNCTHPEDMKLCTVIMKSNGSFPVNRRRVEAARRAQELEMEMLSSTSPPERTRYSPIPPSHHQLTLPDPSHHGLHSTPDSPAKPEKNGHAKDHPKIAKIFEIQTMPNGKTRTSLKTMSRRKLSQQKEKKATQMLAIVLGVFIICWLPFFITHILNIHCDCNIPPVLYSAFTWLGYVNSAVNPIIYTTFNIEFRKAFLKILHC

[16] = target: Sodium-dependent dopamine transporter (Homo sapiens) (UniProt Q01959); assay: DATRANS/HUM Eurofins SafetyScreen44 (BI); conditions: Compound concentration 10.0 uM
[17] = target: cGMP-inhibited 3',5'-cyclic phosphodiesterase 3A (Homo sapiens) (UniProt Q14432); assay: PDE3A Eurofins SafetyScreen44 (BI); conditions: Compound concentration 10.0 uM
[18] = target: T2, Alpha-2A adrenergic receptor (Homo sapiens) (UniProt P08913); assay: ALPHA2A/HU Eurofins SafetyScreen44 (BI); conditions: Compound concentration 10.0 uM
T2 sequence (whole entry): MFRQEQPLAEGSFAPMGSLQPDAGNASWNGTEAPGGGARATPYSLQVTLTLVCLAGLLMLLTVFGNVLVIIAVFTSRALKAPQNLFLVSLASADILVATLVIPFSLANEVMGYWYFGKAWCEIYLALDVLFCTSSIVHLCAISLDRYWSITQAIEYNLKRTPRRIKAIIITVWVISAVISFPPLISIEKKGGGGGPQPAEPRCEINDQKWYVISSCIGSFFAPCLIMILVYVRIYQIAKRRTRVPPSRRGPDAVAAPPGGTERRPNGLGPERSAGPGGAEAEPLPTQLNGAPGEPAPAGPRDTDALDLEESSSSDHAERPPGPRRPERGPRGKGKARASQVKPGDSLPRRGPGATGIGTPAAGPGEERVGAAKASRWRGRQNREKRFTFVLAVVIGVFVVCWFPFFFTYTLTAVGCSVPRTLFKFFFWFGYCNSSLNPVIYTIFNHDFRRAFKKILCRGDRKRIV

[19] = target: hERG (KCNH2) (Homo sapiens, UniProt Q12809); assay: HERG_DOFETILIDE Eurofins SafetyScreen44 (BI); conditions: probe dofetilide, compound concentration 10 uM, read-out: % Ctrl
[20] = target: Amiloride-sensitive sodium channel, ENaC (Homo sapiens, UniProt P37088+P51168+P51170); assay: Inhibition of Na+ current by Ussing Chamber; assay type: functional, tissue-based, epithelium
[21] = target: Angiotensin-converting enzyme (Homo sapiens) (UniProt P12821); assay: ACE(HU_AMTCH400) Eurofins SafetyScreen44 (BI)
Chain of Angiotensin-converting enzyme (Homo sapiens) (P12821 whole entry): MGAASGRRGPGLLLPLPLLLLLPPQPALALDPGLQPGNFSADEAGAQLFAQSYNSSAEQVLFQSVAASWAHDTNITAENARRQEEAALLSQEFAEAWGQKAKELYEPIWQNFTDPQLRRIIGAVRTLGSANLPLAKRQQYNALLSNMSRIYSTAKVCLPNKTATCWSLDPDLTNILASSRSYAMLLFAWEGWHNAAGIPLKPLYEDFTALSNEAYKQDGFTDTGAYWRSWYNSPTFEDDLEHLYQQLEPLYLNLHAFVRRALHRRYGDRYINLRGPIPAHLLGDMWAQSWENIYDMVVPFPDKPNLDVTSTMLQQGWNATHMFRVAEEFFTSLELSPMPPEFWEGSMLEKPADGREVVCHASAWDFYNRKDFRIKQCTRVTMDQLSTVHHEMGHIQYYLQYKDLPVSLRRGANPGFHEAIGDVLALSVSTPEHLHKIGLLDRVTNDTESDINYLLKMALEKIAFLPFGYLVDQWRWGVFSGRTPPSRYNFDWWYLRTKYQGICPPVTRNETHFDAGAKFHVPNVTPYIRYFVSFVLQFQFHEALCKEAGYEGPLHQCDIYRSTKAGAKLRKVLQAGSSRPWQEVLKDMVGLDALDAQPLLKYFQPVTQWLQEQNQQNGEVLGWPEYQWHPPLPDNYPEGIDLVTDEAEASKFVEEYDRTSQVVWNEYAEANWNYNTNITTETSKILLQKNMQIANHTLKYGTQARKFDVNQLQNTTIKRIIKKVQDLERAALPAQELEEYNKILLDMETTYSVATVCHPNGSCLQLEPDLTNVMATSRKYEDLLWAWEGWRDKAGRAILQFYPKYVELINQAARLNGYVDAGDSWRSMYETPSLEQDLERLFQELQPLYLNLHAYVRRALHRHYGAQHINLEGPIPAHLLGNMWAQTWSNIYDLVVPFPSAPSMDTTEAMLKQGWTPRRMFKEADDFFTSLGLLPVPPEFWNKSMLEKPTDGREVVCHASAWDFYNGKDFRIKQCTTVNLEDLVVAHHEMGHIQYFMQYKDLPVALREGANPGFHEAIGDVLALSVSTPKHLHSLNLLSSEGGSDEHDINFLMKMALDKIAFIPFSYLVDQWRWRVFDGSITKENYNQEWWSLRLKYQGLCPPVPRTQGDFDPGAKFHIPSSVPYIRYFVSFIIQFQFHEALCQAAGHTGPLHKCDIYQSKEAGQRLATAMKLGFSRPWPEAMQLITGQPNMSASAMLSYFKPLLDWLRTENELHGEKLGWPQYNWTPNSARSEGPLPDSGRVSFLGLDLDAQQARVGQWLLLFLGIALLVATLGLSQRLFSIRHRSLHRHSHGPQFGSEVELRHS

[22] = target: Tyrosine-protein kinase Lck (Homo sapiens) (UniProt P06239); assay: LCK_CE Eurofins SafetyScreen44 (BI); conditions: Compound concentration 10.0 uM
[23] = target: T3, 5-hydroxytryptamine receptor 1A (Homo sapiens) (UniProt P08908); assay: 5HT1A/H Eurofins SafetyScreen44 (BI); conditions: Compound concentration 10.0 uM
T3 sequence (whole entry): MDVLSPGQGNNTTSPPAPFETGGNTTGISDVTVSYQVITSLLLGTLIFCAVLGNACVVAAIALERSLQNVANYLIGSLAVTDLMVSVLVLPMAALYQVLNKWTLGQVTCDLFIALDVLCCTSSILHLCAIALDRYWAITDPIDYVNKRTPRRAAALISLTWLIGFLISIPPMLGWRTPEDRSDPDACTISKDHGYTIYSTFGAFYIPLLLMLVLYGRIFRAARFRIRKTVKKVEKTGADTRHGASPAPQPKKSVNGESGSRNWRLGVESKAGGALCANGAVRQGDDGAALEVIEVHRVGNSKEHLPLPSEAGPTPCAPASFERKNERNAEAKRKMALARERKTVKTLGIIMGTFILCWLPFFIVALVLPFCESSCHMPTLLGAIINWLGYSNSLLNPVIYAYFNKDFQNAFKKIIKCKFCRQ

IC50 [20]: > 10 µM (not active)
SMILES: CCn1c(CNC(=O)c2ncc(C)nc2N)[n+](CC)c2ccc(C(=O)N(C)CN(C)C)cc21
residual activity [1]: 97% | residual activity [2]: 96% | residual activity [3]: 94% | residual activity [4]: 63% | residual activity [5]: 120% | residual activity [6]: 61% | activity at 10 µM [7]: 103% (not active) | residual activity [8]: 104% | residual activity [9]: 82% | residual activity [10]: 91% | activity at 10 µM [11]: 87% (not active) | residual activity [12]: 35% | residual activity [13]: 103% | residual activity [14]: 97% | residual activity [15]: 79% | residual activity [16]: 90% | residual activity [17]: 87% | residual activity [18]: 97% | activity at 10 µM [19]: 81% (not active) | residual activity ([21]; Compound concentration 10.0 uM): 39% | residual activity [22]: 60% | residual activity [23]: 111%

IC50 [20]: 0.017 µM (active)
SMILES: CCn1c(CNC(=O)c2nc(Cl)cnc2N)[n+](CC)c2ccc(C(=O)N(C)CCN(C)C)cc21
residual activity [1]: 95% | residual activity [2]: 130% | residual activity [3]: 101% | residual activity [4]: 45% | residual activity [5]: 117% | residual activity [6]: 92% | activity at 10 µM [7]: 99% (not active) | residual activity [8]: 94% | residual activity [9]: 84% | residual activity [10]: 97% | activity at 10 µM [11]: 89% (not active) | residual activity [12]: 20% | residual activity [13]: 101% | residual activity [14]: 115% | residual activity [15]: 101% | residual activity [16]: 83% | residual activity [17]: 100% | residual activity [18]: 112% | activity at 10 µM [19]: 91% (not active) | residual activity ([21]; Compound concentration 10.0 uM): 55.6% | residual activity ([21]; Compound concentration 30.0 uM): 31% | residual activity ([21]; Compound concentration 100.0 uM): 24% | residual activity [22]: 95% | residual activity [23]: 107%
